Test results from patent US8163793B2, “Proline derivatives” (Hoffman-La Roche Inc., priority 2009, dated 2012).
Where a name gives a salt, the structure may show the parent alone.

Assays:
Cathepsin S = Cathepsin S (UniProt P25774); test: Cathepsin enzyme inhibition assay (fluorogenic peptide substrate Z-Val-Val-Arg-AMC), Cathepsin S; assay type: biochemical, human and mouse; conditions: enzyme 1 nM, substrate 20 μM, pH 6.5; read-out: CatS IC50
Procedure, shortened: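 Human or mouse cathepsin S (1 nM) was run in 100 mM potassium phosphate pH 6.5 with 5 mM EDTA, 0.001% Triton X-100 and 5 mM DTT. The rise in AMC fluorescence from cleavage was measured, and IC50 values were calculated by standard methods and expressed in μM.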

Cat L = Cat L (UniProt P07711); test: Cathepsin enzyme inhibition assay (fluorogenic peptide substrate Z-Val-Val-Arg-AMC), Cathepsin L; assay type: biochemical, human and mouse; conditions: enzyme 1 nM, substrate 20 μM, pH 6.5; read-out: CatL IC50
Procedure, shortened: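 Cathepsin L at 1 nM was mixed with compound, then started with 20 μM Z-Val-Val-Arg-AMC in pH 6.5 potassium phosphate with EDTA, Triton X-100 and 5 mM DTT. AMC fluorescence (ex 360/em 465 nm) was followed over 20 min. IC50 is given in μM.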

Structure (SMILES)	IC50 (Cathepsin S)	IC50 (Cat L)
Cc1cc(N2C[C@H](S(=O)(=O)c3ccccc3C(F)(F)F)C[C@H]2C(=O)NC2(C#N)CC2)n(-c2ccccc2)n1 [Example 192, (2S,4R)-1-(5-Methyl-2-phenyl-2H-pyrazol-3-yl)-4-(2-trifluoromethyl-benzenesulfonyl)-pyrrolidine-2-carboxylic acid (1-cyano-cyclopropyl)-amide]	0.5 nM	43700 nM
N#CC1(NC(=O)[C@@H]2C[C@@H](S(=O)(=O)CC3CC3)CN2C(=O)C2(C(F)(F)F)CC2)CC1 [Example 423, (2S,4R)-4-Cyclopropylmethanesulfonyl-1-(1-trifluoromethyl-cyclopropanecarbonyl)-pyrrolidine-2-carboxylic acid (1-cyano-cyclopropyl)-amide]	1470 nM	≥ 25000 nM
Cc1cc(N2C[C@H](S(=O)(=O)c3ccc(-c4ccncn4)cc3C(F)(F)F)C[C@H]2C(=O)NC2(C#N)CC2)n(C2CCC2)n1 [Example 419, (2S,4R)-1-(2-Cyclobutyl-5-methyl-2H-pyrazol-3-yl)-4-(4-pyrimidin-4-yl-2-trifluoromethyl-benzenesulfonyl)-pyrrolidine-2-carboxylic acid (1-cyano-cyclopropyl)-amide]	0.415 nM	16900 nM
C[C@H](Oc1ccc(S(=O)(=O)[C@@H]2C[C@@H](C(=O)NC3(C#N)CC3)N(C(=O)OC(C)(C)C)C2)c(Cl)c1)C(F)(F)F [Example 229, (2S,4R)-4-[2-Chloro-4-((S)-2,2,2-trifluoro-1-methyl-ethoxy)-benzenesulfonyl]-2-(1-cyano-cyclopropylcarbamoyl)-pyrrolidine-1-carboxylic acid tert-butyl ester]	14.7 nM	23900 nM
N#CC1(NC(=O)[C@@H]2C[C@@H](S(=O)(=O)c3ccc(OCC(F)(F)F)cc3Cl)CN2C(=O)C2(c3ccccc3)CCCCC2)CC1 [Example 303, (2S,4R)-4-[2-Chloro-4-(2,2,2-trifluoro-ethoxy)-benzenesulfonyl]-1-(1-phenyl-cyclohexanecarbonyl)-pyrrolidine-2-carboxylic acid (1-cyano-cyclopropyl)-amide]	0.03 nM	1480 nM
N#CC1(NC(=O)[C@@H]2C[C@@H](S(=O)(=O)c3ccc(N4CCC(F)(F)CC4)cc3Cl)CN2)CC1 [Example 155, (2S,4R)-4-[2-Chloro-4-(4,4-difluoro-piperidin-1-yl)-benzenesulfonyl]-pyrrolidine-2-carboxylic Acid (1-cyano-cyclopropyl)-amide]	2.5 nM	8320 nM
N#CC1(NC(=O)[C@@H]2C[C@@H](S(=O)(=O)c3ccc(OCC(F)(F)F)cc3Cl)CN2C(=O)C2(c3ccc(Cl)cc3)CCCC2)CC1 [Example 302, (2S,4R)-1-[1-(4-Chloro-phenyl)-cyclopentanecarbonyl]-4-[2-chloro-4-(2,2,2-trifluoro-ethoxy)-benzenesulfonyl]-pyrrolidine-2-carboxylic acid (1-cyano-cyclopropyl)-amide]	0.03 nM	575 nM
CC(C)(C)OC(=O)N1C[C@H](S(=O)(=O)c2ccc(OCC(F)(F)F)cc2C(F)(F)F)C[C@H]1C(=O)NC1(C#N)CC1 [Example 208, (2S,4R)-2-(1-Cyano-cyclopropylcarbamoyl)-4-[4-(2,2,2-trifluoro-ethoxy)-2-trifluoromethyl-benzenesulfonyl]-pyrrolidine-1-carboxylic acid tert-butyl ester]	0.8 nM	≥ 25000 nM
N#CCNC(=O)[C@@H]1C[C@@H](S(=O)(=O)c2ccccc2)CN1C(=O)c1ccccc1 [Example 52, (2S,4R)-4-Benzenesulfonyl-1-benzoyl-pyrrolidine-2-carboxylic acid cyanomethyl-amide]	14 nM	≥ 25000 nM
CC(C)(C)OC(=O)N1C[C@H](S(=O)(=O)c2ccc(-n3cnc4ccccc43)cc2C(F)(F)F)C[C@H]1C(=O)NC1(C#N)CC1 [Example 9, (2S,4R)-4-(4-Benzoimidazol-1-yl-2-trifluoromethyl-benzenesulfonyl)-2-(1-cyano-cyclopropylcarbamoyl)-pyrrolidine-1-carboxylic acid tert-butyl ester]	0.6 nM	≥ 25000 nM
Cc1cc(N2C[C@H](S(=O)(=O)c3ccc(OCC(F)(F)F)cc3Cl)C[C@H]2C(=O)NC2(C#N)CC2)n(C2CCC2)n1 [Example 480, (2S,4R)-4-[2-Chloro-4-(2,2,2-trifluoro-ethoxy)-benzenesulfonyl]-1-(2-cyclobutyl-5-methyl-2H-pyrazol-3-yl)-pyrrolidine-2-carboxylic acid (1-cyano-cyclopropyl)-amide]	1.05 nM	5360 nM
N#CC1(NC(=O)[C@@H]2C[C@@H](S(=O)(=O)c3ccccc3C(F)(F)F)CN2c2nc(Cl)ns2)CC1 [Example 405, (2S,4R)-1-(3-Chloro-[1,2,4]thiadiazol-5-yl)-4-(2-trifluoromethyl-benzenesulfonyl)-pyrrolidine-2-carboxylic acid (1-cyano-cyclopropyl)-amide]	0.935 nM	≥ 25000 nM
CCN1CCN(c2ccc(S(=O)(=O)[C@@H]3C[C@H](C(=O)NC4(C#N)CC4)N(c4ncccc4C(F)(F)F)C3)c(Cl)c2)CC1 [Example 191, (2R,4R)-4-[2-Chloro-4-(4-ethyl-piperazin-1-yl)-benzenesulfonyl]-1-(3-trifluoromethyl-pyridin-2-yl)-pyrrolidine-2-carboxylic acid (1-cyano-cyclopropyl)-amide]	107 nM	≥ 25000 nM
N#CC1(NC(=O)[C@@H]2C[C@@H](S(=O)(=O)c3ccc(N4CCCCC4)cc3Cl)CN2C(=O)C2(C(F)(F)F)CC2)CC1 [Example 135, (2S,4R)-4-(2-Chloro-4-piperidin-1-yl-benzenesulfonyl)-1-(1-trifluoromethyl-cyclopropanecarbonyl)-pyrrolidine-2-carboxylic acid (1-cyano-cyclopropyl)-amide]	0.3 nM	3150 nM
CC(C)CC(=O)N1C[C@H](S(=O)(=O)c2ccc(Cl)cc2Cl)C[C@H]1C(=O)NC1(C#N)CC1 [Example 228, (2S,4R)-4-(2,4-Dichloro-benzenesulfonyl)-1-(3-methyl-butyryl)-pyrrolidine-2-carboxylic acid (1-cyano-cyclopropyl)-amide]	0.9 nM	15400 nM
N#CC1(NC(=O)[C@@H]2C[C@@H](S(=O)(=O)c3ccc(N4CCOCC4=O)cc3C(F)(F)F)CN2)CC1 [Example 30, (2S,4R)-4-[4-(3-Oxo-morpholin-4-yl)-2-trifluoromethyl-benzenesulfonyl]-pyrrolidine-2-carboxylic acid (1-cyano-cyclopropyl)-amide hydrochloride]	3 nM	≥ 25000 nM
N#CC1(NC(=O)[C@@H]2C[C@@H](S(=O)(=O)c3ccc(N4CCN5CCC[C@H]5C4)cc3Cl)CN2C(=O)C2(C(F)(F)F)CC2)CC1 [Example 299, (2S,4R)-4-((S)-2-Chloro-4-hexahydro-pyrrolo[1,2-a]pyrazin-2-yl-benzenesulfonyl)-1-(1-trifluoromethyl-cyclopropanecarbonyl)-pyrrolidine-2-carboxylic acid (1-cyano-cyclopropyl)-amide]	0.17 nM	1180 nM
Cc1cc(N2C[C@H](S(=O)(=O)c3ccccc3C(F)(F)F)C[C@@H]2C(=O)NC2(C#N)CC2)n(Cc2ccccc2)n1 [Example 321, (2R,4R)-1-(2-Benzyl-5-methyl-2H-pyrazol-3-yl)-4-(2-trifluoromethyl-benzenesulfonyl)-pyrrolidine-2-carboxylic acid (1-cyano-cyclopropyl)-amide]	68.3 nM	≥ 25000 nM
CC1(C(=O)N2C[C@H](S(=O)(=O)c3ccccc3Cl)C[C@H]2C(=O)NC2(C#N)CC2)CC1 [Example 214, (2S,4R)-4-(2-Chloro-benzenesulfonyl)-1-(1-methyl-cyclopropanecarbonyl)-pyrrolidine-2-carboxylic acid (1-cyano-cyclopropyl)-amide]	0.5 nM	11300 nM
Cc1cc(N2C[C@H](S(=O)(=O)c3ccc(N4CC(F)(F)C4)cc3Cl)C[C@H]2C(=O)NC2(C#N)CC2)n(C2CCC2)n1 [Example 456, (2S,4R)-4-(2-chloro-4-(3,3-difluoroazetidin-1-yl)phenylsulfonyl)-N-(1-cyanocyclopropyl)-1-(1-cyclobutyl-3-methyl-1H-pyrazol-5-yl)pyrrolidine-2-carboxamide]	0.725 nM	3990 nM
N#CC1(NC(=O)[C@@H]2C[C@@H](S(=O)(=O)c3ccc(OCC(F)(F)F)cc3C(F)(F)F)CN2c2nnc(C(F)(F)F)s2)CC1 [Example 366, (2S,4R)-4-[4-(2,2,2-Trifluoro-ethoxy)-2-trifluoromethyl-benzenesulfonyl]-1-(5-trifluoromethyl-[1,3,4]thiadiazol-2-yl)-pyrrolidine-2-carboxylic acid (1-cyano-cyclopropyl)-amide]	0.327 nM	≥ 25000 nM
Cc1cc(N2C[C@H](S(=O)(=O)c3ccccc3C(F)(F)F)C[C@H]2C(=O)NC2(C#N)CC2)n(C2CCNCC2)n1 [Example 407, (2S,4R)-1-(5-Methyl-2-piperidin-4-yl-2H-pyrazol-3-yl)-4-(2-trifluoromethyl-benzenesulfonyl)-pyrrolidine-2-carboxylic acid (1-cyano-cyclopropyl)-amide]	38.5 nM	≥ 25000 nM
N#CC1(NC(=O)[C@@H]2C[C@@H](S(=O)(=O)c3ccccc3C(F)(F)F)CN2C=O)CC1 [Example 100, (2S,4R)-1-Formyl-4-(2-trifluoromethyl-benzenesulfonyl)-pyrrolidine-2-carboxylic acid (1-cyano-cyclopropyl)-amide]	7.7 nM	≥ 25000 nM
